molecular target: T1, human TREM2 (Homo sapiens, UniProt Q9NZC2); assay: TREM2 agonist potency by cellular phosphorylation of Syk (AlphaLisa) in HEK293T-hTREM2 cells; assay type: cell-based; conditions: HEK293 cells expressing human TREM2 and DAP12, Table D
T1 construct: expressed in transfected cells; host or cells: HEK293T
Procedure, shortened: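 Agonist EC50 from a variable-slope four-parameter fit of % activation, based on AlphaLisa phospho-Syk levels in lysates. Cells: HEK293T-hTREM2 (with DAP12), treated 45 min at room temperature with compound in assay buffer.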

T1 sequence (Q9NZC2 19-230): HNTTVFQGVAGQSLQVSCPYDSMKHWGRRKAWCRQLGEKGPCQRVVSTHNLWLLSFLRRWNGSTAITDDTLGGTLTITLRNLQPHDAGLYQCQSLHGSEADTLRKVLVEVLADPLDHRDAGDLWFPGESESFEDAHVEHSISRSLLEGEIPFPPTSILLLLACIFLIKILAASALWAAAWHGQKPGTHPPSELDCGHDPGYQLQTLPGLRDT
T1 sequence (O43914 22-113 partner): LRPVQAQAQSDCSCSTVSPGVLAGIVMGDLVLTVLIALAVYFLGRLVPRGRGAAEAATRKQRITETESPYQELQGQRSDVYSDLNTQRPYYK

| Compound | EC50 [µM] |
| --- | --- |
| Cc1ccc(-c2nc(N3C[C@@H](C)O[C@@H](c4cnn(C5CC5)c4)C3)nc3nc(C)c(C)nc23)o1 [Example 243, (2S,6R)-2-(1-cyclopropyl-1H-pyrazol-4-yl)-4-(6,7-dimethyl-4-(5-methylfuran-2-yl)pteridin-2-yl)-6-methylmorpholine] | 0.05 to 0.5 |
| Cc1nc2nc([C@H]3CCO[C@@H](c4cnn(CCF)c4)C3)nc(-c3ccc(F)cc3F)c2nc1C [Example 150, 4-(2,4-difluorophenyl)-2-((2R,4S)-2-(1-(2-fluoroethyl)-1H-pyrazol-4-yl)tetrahydro-2H-pyran-4-yl)-6,7-dimethylpteridine] | < 0.05 |
| Cc1nc2nc(N3C[C@@H](C)O[C@@H](c4cnn(C5CC5)c4)C3)nc(-c3ccnc(C(F)(F)F)c3)c2nc1C [Example 178] | < 0.05 |
| [2H]C([2H])([2H])c1nc2nc([C@H]3CCO[C@@H](c4cnn(C([2H])([2H])[2H])c4)C3)nc(-c3ccc(C)cc3)c2nc1C([2H])([2H])[2H] [Example 173, 6,7-bis(methyl-d3)-2-((2R,4S)-2-(1-(methyl-d3)-1H-pyrazol-4-yl)tetrahydro-2H-pyran-4-yl)-4-(p-tolyl)pteridine] | 0.05 to 0.5 |
| Cc1cc([C@@H]2C[C@H](c3cc(-c4ccc(Cl)cc4F)c4cc(C)c(C)nc4n3)CCO2)ccn1 [Example 185, 5-(4-chloro-2-fluorophenyl)-2,3-dimethyl-7-((2S,4R)-2-(2-methylpyridin-4-yl)tetrahydro-2H-pyran-4-yl)-1,8-naphthyridine] | 0.5 to 3 |
| Cc1cc([C@H]2C[C@@H](c3nc(-c4ccc(Cl)c(F)c4F)c4ncc(C)nc4n3)CCO2)ccn1 (racemic) [Example 89, 4-(4-chloro-2,3-difluorophenyl)-7-methyl-2-(2-(2-methylpyridin-4-yl)tetrahydro-2H-pyran-4-yl)pteridine] | < 0.05 |
| Cc1nc2nc([C@H]3CCO[C@@H](c4cnn(C5CC5)c4)C3)nc(-c3cc(F)c(F)cc3F)c2nc1C [Example 153, 2-((2R,4S)-2-(1-cyclopropyl-1H-pyrazol-4-yl)tetrahydro-2H-pyran-4-yl)-6,7-dimethyl-4-(2,4,5-trifluorophenyl)pteridine] | < 0.05 |
| Cc1cc([C@@H]2C[C@H](c3nc(-c4ccc(Cl)c(F)c4F)c4ncc(C)nc4n3)CCO2)ccn1 [Example 131, 4-(4-chloro-2,3-difluorophenyl)-7-methyl-2-((2S,4R)-2-(2-methylpyridin-4-yl)tetrahydro-2H-pyran-4-yl)pteridine] | 0.5 to 3 |
| Cc1nc2nc([C@H]3CCO[C@@H](c4cnn(C5CC5)n4)C3)nc(-c3ccc(F)cc3F)c2nc1C [Example 155, 2-((2R,4S)-2-(2-cyclopropyl-2H-1,2,3-triazol-4-yl)tetrahydro-2H-pyran-4-yl)-4-(2,4-difluorophenyl)-6,7-dimethylpteridine] | 0.05 to 0.5 |
| Cc1nc2nc([C@@H]3CCO[C@@H](c4cnn(C5CC5)c4)C3)cc(-c3ccc(Cl)cc3F)c2nc1C [Example 223, 8-(4-chloro-2-fluorophenyl)-6-((2R,4R)-2-(1-cyclopropyl-1H-pyrazol-4-yl)tetrahydro-2H-pyran-4-yl)-2,3-dimethylpyrido[2,3-b]pyrazine] | 0.05 to 0.5 |
| Cc1cc2c(-c3ccc(F)cc3F)cc([C@H]3CCO[C@@H](c4cnn(C5CC5)c4)C3)nc2nc1C [Example 232] | < 0.05 |
| Cc1nc2nc([C@@H]3CCO[C@H](c4cccc(=O)n4C)C3)nc(-c3ccc(F)cc3F)c2nc1C [Example 202] | 0.5 to 3 |
| Cc1nc2nc(-c3ccc(Cl)cc3F)cc(C3CCO[C@@H](c4cnn(C5CC5)c4)C3)c2nc1C (stereo partly drawn) [Example 235, 6-(4-chloro-2-fluorophenyl)-8-((2R)-2-(1-cyclopropyl-1H-pyrazol-4-yl)tetrahydro-2H-pyran-4-yl)-2,3-dimethylpyrido[2,3-b]pyrazine] | < 0.05 |
| Cc1cnc2c(C34CC(C(F)(F)F)(C3)C4)nc([C@H]3C[C@@H](C)O[C@@H](c4cnn(C5CC5)c4)C3)nc2n1 [Example 140, 2-((2R,4S,6R)-2-(1-cyclopropyl-1H-pyrazol-4-yl)-6-methyltetrahydro-2H-pyran-4-yl)-7-methyl-4-(3-(trifluoromethyl)bicyclo[1.1.1]pentan-1-yl)pteridine] | 0.5 to 3 |
| Cc1nc2nc([C@H]3C[C@@H](C)O[C@@H](c4cnn(C5CC5)c4)C3)nc(-c3ccc(C(F)(F)F)cc3)c2nc1C [Example 159, 2-((2R,4S,6R)-2-(1-cyclopropyl-1H-pyrazol-4-yl)-6-methyltetrahydro-2H-pyran-4-yl)-6,7-dimethyl-4-(4-(trifluoromethyl)phenyl) pteridine] | < 0.05 |
| Cc1nc2nc(C3CCOC(c4cc(C5CC5)n[nH]4)C3)nc(-c3ccc(F)cc3F)c2nc1C (stereo not shown) [Example 166, 2-(2-(3-cyclopropyl-1H-pyrazol-5-yl)tetrahydro-2H-pyran-4-yl)-4-(2,4-difluorophenyl)-6,7-dimethylpteridine] | 0.05 to 0.5 |
| Cc1nc2nc([C@H]3C[C@@H](C)O[C@@H](c4cnn(C5CC5)c4)C3)nc(-c3cc(F)c(F)cc3F)c2nc1C [Example 157, 2-((2R,4S,6R)-2-(1-cyclopropyl-1H-pyrazol-4-yl)-6-methyltetrahydro-2H-pyran-4-yl)-6,7-dimethyl-4-(2,4,5-trifluorophenyl)pteridine] | < 0.05 |
| [2H][C@@]1(c2cnn(C3CC3)c2)C[C@H](c2nc(-c3ccc(F)cc3F)c3nc(C)c(C)nc3n2)CCO1 (single isomer, unassigned) [Example 183] | 3 to 100 |
| Cc1nc2nc([C@H]3CCO[C@@H](c4cnn(C5CC5)c4)C3)nc(-c3ccc(C(F)(F)F)cc3)c2nc1C [Example 139] | < 0.05 |

same assay, conditions: HEK293 cells expressing human TREM2 and DAP12, Table D-2

| Compound | EC50 [µM] |
| --- | --- |
| Cc1nc2nc([C@H]3CCO[C@@H](c4cnn(C5CC5)c4)C3)nc(-c3ccc(C(F)(F)F)c(F)c3F)c2nc1C (stereo in doubt) [Example I-1588, 4-[2,3-difluoro-4-(trifluoromethyl)phenyl]-6,7-dimethyl-2-[(2R,4S)-2-(1-cyclopropylpyrazol-4-yl)tetrahydropyran-4-yl]pteridine] | < 0.05 |
| Cc1nc2nc(N3C[C@@H](C(F)F)O[C@@H](c4cnn(C5CC5)c4)C3)nc(-c3ccc(C(F)(F)F)cc3F)c2nc1C (stereo in doubt) [Example I-1598, (2S,6S)-2-(1-cyclopropylpyrazol-4-yl)-6-(difluoromethyl)-4-[4-[2-fluoro-4-(trifluoromethyl)phenyl]-6,7-dimethyl-pteridin-2-yl]morpholine] | < 0.05 |
| Cc1nc2nc([C@H]3CCO[C@@H](c4cnn(C5CC5)c4)C3)nc(-c3ccc(C(F)(F)F)cc3F)c2nc1C(F)F [Example I-1593, 2-[(2R,4S)-2-(1-cyclopropylpyrazol-4-yl)tetrahydropyran-4-yl]-6-(difluoromethyl)-4-[2-fluoro-4-(trifluoromethyl)phenyl]-7-methyl-pteridine] | < 0.05 |
| Cc1nc2nc(C3CCO[C@@H](c4cnn(C5CC5)c4)C3)nc([C@H]3C[C@H](C(F)(F)F)C3)c2nc1C (stereo partly drawn) [Example I-1432, 2-[(2R)-2-(1-cyclopropylpyrazol-4-yl)tetrahydropyran-4-yl]-6,7-dimethyl-4-[3-(trifluoromethyl)cyclobutyl]pteridine] | < 0.05 |
| Cc1nc2nc(N3C[C@@H](c4cnn(C)c4)O[C@@H](C4CC4)C3)nc(-c3ccc(F)cc3F)c2nc1C [Example I-1674, (2S,6R)-2-cyclopropyl-4-[4-(2,4-difluorophenyl)-6,7-dimethyl-pteridin-2-yl]-6-(1-methylpyrazol-4-yl)morpholine] | 0.05 to 0.5 |
| Cc1cc([C@H]2CN(c3nc(-c4ccc(Cl)cc4F)c4nc(C)c(C)nc4n3)CCO2)no1 [Example I-1510, (2R)-4-[4-(4-chloro-2-fluoro-phenyl)-6,7-dimethyl-pteridin-2-yl]-2-(5-methylisoxazol-3-yl)morpholine] | 0.05 to 0.5 |
| CN(C)C(=O)c1nc2c(-c3ccc(F)cc3F)nc(C3CCO[C@@H](c4cnn(C5CC5)c4)C3)nc2nc1C1CC1 (stereo partly drawn) [Example I-1603, 7-cyclopropyl-2-[(2R)-2-(1-cyclopropylpyrazol-4-yl)tetrahydropyran-4-yl]-4-(2,4-difluorophenyl)-N,N-dimethyl-pteridine-6-carboxamide] | 0.5 to 3 |
| Cc1nc2nc([C@H]3CCO[C@@H](c4cnn(C5CC5)c4)C3)nc(-c3ccc(C4CC4)cc3F)c2nc1C [Example I-1187, 2-((2R,4S)-2-(1-cyclopropyl-1H-pyrazol-4-yl)tetrahydro-2H-pyran-4-yl)-4-(4-cyclopropyl-2-fluorophenyl)-6,7-dimethylpteridine] | 0.05 to 0.5 |
| Cc1nc2nc([C@H]3CC(CO)O[C@@H](c4cnn(C5CC5)c4)C3)nc(-c3ccc(F)cc3F)c2nc1C (stereo in doubt) [Example I-1624, [(2S,4R,6R)-6-(1-cyclopropylpyrazol-4-yl)-4-[4-(2,4-difluorophenyl)-6,7-dimethyl-pteridin-2-yl]tetrahydropyran-2-yl]methanol] | 0.5 to 3 |
| Fc1cc(Cl)ccc1-c1nc([C@@H]2CCO[C@H](c3cnn(C4CC4)c3)C2)nc2nc(CC(F)(F)F)cnc12 [Example I-1338, 4-(4-chloro-2-fluoro-phenyl)-2-[(2S,4R)-2-(1-cyclopropylpyrazol-4-yl)tetrahydropyran-4-yl]-7-(2,2,2-trifluoroethyl)pteridine] | 0.05 to 0.5 |
| COCn1cc([C@H]2CN(c3nc(-c4ccc(F)cc4F)c4nc(C)c(C)nc4n3)C[C@@H](C3CC3)O2)cn1 [Example I-1736, (2R,6S)-2-cyclopropyl-4-[4-(2,4-difluorophenyl)-6,7-dimethyl-pteridin-2-yl]-6-[1-(methoxymethyl)pyrazol-4-yl]morpholine] | < 0.05 |
| Cc1nc2nc(N3C[C@@H](c4cnn(C(F)F)c4)O[C@@H](C4CC4)C3)nc(-c3ccc(C(F)(F)F)cc3F)c2nc1C [Example I-1712, (2S,6R)-2-cyclopropyl-6-[1-(difluoromethyl)pyrazol-4-yl]-4-[4-[2-fluoro-4-(trifluoromethyl)phenyl]-6,7-dimethyl-pteridin-2-yl]morpholine] | 0.05 to 0.5 |

Reference: patent US20240309003A1, “HETEROCYCLIC COMPOUNDS AS TRIGGERING RECEPTOR EXPRESSED ON MYELOID CELLS 2 AGONISTS AND METHODS OF USE” (Vigil Neuroscience, Inc., priority 2021, published 2024)
